The test system of one assay is cancer cells. The assay can be described thus: Taxol induced cancer cell death with pathway inhibitors/activators (FIGS. 4A-4D). Format: cell-based. The note with it: added to Taxol. The text has this:
The molecular mechanism involved in C6-ceramide induced chemosensitization effects was examined by focusing on taxol.
To further confirm the requirement of AMPK activation in this synergistic effect, siRNA directed against AMPK can be used.

The test system of a further assay is L3.6 pancreatic cells. Format: in vivo. The method, then: Treatment was started 4 days after L3.6 cell injection with thrice weekly (3×/wk) intraperitoneal (i.p.) injections of paclitaxel 3.0 mg/ml with or without C6-ceramide (10 mg/ml) for 2 weeks. Mouse survival (FIGS. 2A and 2C), tumor volume (in cm^3; FIG. 2B), mouse body weight (in grams) were recorded (FIG. 2E). The average rate of tumor development was calculated by total tumor volume dividing by total number of days monitored (FIG. 2C).
(§1) SCID/Beige/Taconic nude male mice (22-25 g; 6-8 weeks old) were ear tagged and randomized into 4 different groups (Control, Ceramide, gemcitabine, Ceramide+gemcitabine) combining 5 mice each prior to inoculation subcutaneous (s.c.) with 2×10^6 L3.6 cells in a 0.1 ml volume into the internal surface of the right thigh. Treatment was started 4 days after L3.6 cell injection with thrice weekly (3×/wk) intraperitoneal (i.p.) injections of gemcitabine (two doses: 5.0 and 10.0 mg/ml) with or without C6-ceramide (10 mg/ml) for 2 weeks. Mouse survival (FIGS. 3A, 3B, and 3E) and tumor volume (in cm^3; FIGS. 3C and 3D) were recorded (FIG. 3E). Pancreatic cancer cell lines, including L3.6 cells (FIG. 3F), Panc-1 cells (FIG. 3G) and MIA-PaCa2 cells (MIA, FIG. 3H) were cultured in basic DMEM medium and were treated with gemcitabine (Gem, 1 μg/ml). Mitomycin C was always present in the media to prevent cell proliferation from occurring.
SCID/Beige/Taconic male mice were inoculated with 2×10^6 L3.6 pancreatic cells and treated […] 4 days post tumor implant with thrice weekly (3×/wk) intraperitoneal (I.P.) injections of paclitaxel (taxol) 3.0 mg/ml or gemcitabine (Gem) 10 mg/ml after treatment and were autopsied when near death (as per IRB committee). Mouse survival, tumor volume (in cm^3), and body weight (in grams) were recorded. Average rate of tumor development was calculated by dividing total tumor volume by total number of days monitored.
The possible combination effect of C6-ceramide on gemcitabine-induced cytotoxicity (in vitro) and regression (in vivo) of the L3.6 pancreatic cancer cell was also tested according to the methods described in Examples 2 and 3.

For assay [1], the system named is L3.6 pancreatic cancer cells. The assay can be described thus: Cell viability / cell death (MTT) in L3.6 pancreatic cancer cells. Format: cell-based, human. Conditions: LY 1 μM, rapamycin 100 nM, U0126 1 μg/ml; 48 hours. The method, then:
L3.6 pancreatic cancer cells, cultured either in the basic DMEM medium or with 10% FBS, were treated with the indicated doses of taxol in the presence or absence of C6-ceramide (10 μg/ml) for 48 hours and cell viability was detected by MTT assay (FIGS. 1A-1B). L3.6 cells, cultured either in basic DMEM medium or with 10% FBS, were treated with the indicated dose of C6-ceramide in the presence or absence of taxol (1.5 μg/ml) for 48 hours and cell viability was detected by MTT assay (FIGS. 1C-1D). Mitomycin C (10 μg/ml) was always present in the media to prevent cell proliferation from occurring. The data represents the mean±SD of at least triplicate experiments. *P<0.05 versus group without C6-ceramide presents (FIGS. 1A-1B). **P<0.05 versus group without taxol presents (FIGS. 1C-1D).
as §1, with “FIGS. 3A-3H show synergistic anti-tumor effects of C6-ceramide and gemcitabine in vivo and in vitro. SCID/Beige/Taconic” for “SCID/Beige/Taconic”, “occurring. The data represent the mean±SD of at least triplicate experiments. *P<0.05 versus group without C6-ceramide presents. The experiments were repeated at least three times and similar results were observed.” for “occurring.”
(§2) Pancreatic cancer cell lines L3.6 cells were left untreated or treated with gemcitabine (Gem, 1 μg/ml) or taxol (1.5 μg/ml) in the presence or absence of C6-ceramide (10 μg/ml) for 2, 4 and 6 hours, AKT/mTORC1 and ERK activation were detected by Western Blot using indicated antibodies (FIGS. 5A and 5C). p-AKT (S473) and p-ERK at 4 hour time intervals for each treatment quantified (FIGS. 5B and 5D). L3.6 cells were pretreated with various inhibitors including PI3K/AKT inhibitor LY 294002 (LY, 1 μM), mTORC1 inhibitor rapamycin (100 nM), MEK/ERK inhibitor U0126 (1 μg/ml) or gemcitabine (1 μg/ml) for 48 hours, cell death was detected 48 hours later (FIG. 5E). The effects of the various inhibitors described above on AKT/mTORC1 and ERK activation were also detected by Western Blots using commercial available antibodies (FIG. 5F). *P<0.05 versus group without C6-ceramide presents. The experiments were repeated at least three times and similar results were observed.
Cell viability was measured by the 3-[4m5-dimethylthylthiazol-2-y]-2.5 diphenyltetrazolium bromide (MTT) method, as described in Cao et al. (2009) Sci. Signal, 2:RA17. Briefly, the cells were collected and seeded in 96-well plate at a density of 2×10^5 cells/cm^2. Different seeding densities were optimized at the beginning of the experiments. After overnight incubation cells were exposed to fresh medium containing indicated reagents at 37° C. After incubation for different time periods, 20 ul of MTT tetrazolium (Sigma, St. Louis, Mo.) salt dissolved in Hank's balanced solution at a concentration of 5 mg/ml was added to each well and incubated in a CO2 incubator for an additional 4 hours. The medium was subsequently aspirated from each well and 150 ul of DMSO (Sigma, St. Louis, Mo.) was added to dissolve formazan crystals and the absorbance of each well was obtained using a Dynatech MR5000 plate reader at a test wavelength of 490 nm with a reference wavelength of 630 nm. […]

Another assay concerns Panc-1 cells. As to the kind of experiment: Cell death in Panc-1 pancreatic cancer cells. Format: cell-based. The note with it: Panc-1; gemcitabine 1.5 μg/ml. On the procedure: as §1, with “FIGS. 3A-3H show synergistic anti-tumor effects of C6-ceramide and gemcitabine in vivo and in vitro. SCID/Beige/Taconic” for “SCID/Beige/Taconic”, “Pancreatic cancer cell lines, including L3.6 cells (FIG. 3F), Panc-1 cells (FIG. 3G) and MIA-PaCa2 cells (MIA, FIG. 3H) were cultured in basic DMEM medium and were treated with gemcitabine (Gem, 1 μg/ml).” left out, “occurring. The data represent the mean±SD of at least triplicate experiments. *P<0.05 versus group without C6-ceramide presents. The experiments were repeated at least three times and similar results were observed.” for “occurring.”
(§3) Cell viability was measured by the 3-[4m5-dimethylthylthiazol-2-y]-2.5 diphenyltetrazolium bromide (MTT) method, as described in Cao et al. (2009) Sci. Signal, 2:RA17. Briefly, the cells were collected and seeded in 96-well plate at a density of 2×10^5 cells/cm^2. Different seeding densities were optimized at the beginning of the experiments. […] The medium was subsequently aspirated from each well and 150 ul of DMSO (Sigma, St. Louis, Mo.) was added to dissolve formazan crystals and the absorbance of each well was obtained using a Dynatech MR5000 plate reader at a test wavelength of 490 nm with a reference wavelength of 630 nm.
(§4) The possible combination effect of C6-ceramide on gemcitabine-induced cytotoxicity (in vitro) and regression (in vivo) of the L3.6 pancreatic cancer cell was also tested according to the methods described in Examples 2 and 3. […] A synergistic anti-tumor effect of gemcitabine and C6-ceramide in multiple pancreatic cancer cells in vitro was also determined.

The test system of a further assay is MIA-PaCa2 cells. As to the kind of experiment: Cell death in MIA-PaCa2 pancreatic cancer cells. Format: cell-based. The note with it: MIA cells; gemcitabine 1.5 μg/ml. The method, then: as §1, with “FIGS. 3A-3H show synergistic anti-tumor effects of C6-ceramide and gemcitabine in vivo and in vitro. SCID/Beige/Taconic” for “SCID/Beige/Taconic”, “Pancreatic cancer cell lines, including L3.6 cells (FIG. 3F), Panc-1 cells (FIG. 3G) and MIA-PaCa2 cells (MIA, FIG. 3H) were cultured in basic DMEM medium and were treated with gemcitabine (Gem, 1 μg/ml).” left out, “occurring. The data represent the mean±SD of at least triplicate experiments. *P<0.05 versus group without C6-ceramide presents. The experiments were repeated at least three times and similar results were observed.” for “occurring.”
as §3, §4

In a further assay the test system is AKT/mTORC1. The assay can be described thus: Western Blot of AKT/mTORC1 activation in L3.6 cells. Format: cell-based. The method, then:
as §2, with “5E).” for “5E). The effects of the various inhibitors described above on AKT/mTORC1 and ERK activation were also detected by Western Blots using commercial available antibodies (FIG. 5F). *P<0.05 versus group without C6-ceramide presents. The experiments were repeated at least three times and similar results were observed.”
(§5) As described in Cao et al. (2009) Sci. Signal, 2:RA17, aliquots of 30-40 μg of protein from each sample (treated as indicated in the legends) were separated by 10% SDS-polyacrylamide gel electrophoresis (SDS-PAGE) and transferred onto a polyvinylidene difluoride (PVDF) membrane (Millipore, Bedford, Mass.). After blocking with 10% instant nonfat dry milk for 1 hour, membranes were incubated with specific antibodies overnight at 4° C. followed by incubation with secondary antibodies (HRP-conjugated anti-rabbit or anti-mouse IgG at the appropriate dilutions) for 60 minutes to 1 hour at room temperature. Antibody binding was detected with the enhanced chemiluminescence (ECL) detection system (Amersham Biosciences, Piscataway, N.J.).
On the technique in general: In western blotting, separated proteins are transferred to a membrane and probed.

A further assay has as its system ERK. The assay can be described thus: Western Blot of ERK activation in L3.6 cells. Format: cell-based. On the procedure:
as §2, with “5E).” for “5E). The effects of the various inhibitors described above on AKT/mTORC1 and ERK activation were also detected by Western Blots using commercial available antibodies (FIG. 5F). *P<0.05 versus group without C6-ceramide presents. The experiments were repeated at least three times and similar results were observed.”
as §5

Assay [2] deals with L3.6 pancreatic cancer cells. As to the kind of experiment: Cell viability / cell death (MTT) in L3.6 pancreatic cancer cells. Format: cell-based, human. The note with it: gemcitabine 1.5 μg/ml.

This is an account of results in patent publication US9974760B2, “Compositions and methods for treating cancer” (Chemo-Enhanced LLC, priority 2011, dated 2018).

Entries after “also recorded” stand apart in the source; their conditions may differ.

On to `NC(=O)c1ncn([C@@H]2O[C@H](CO)[C@@H](O)[C@H]2O)c1N` [AICAR], for which the “effect on Taxol induced cancer cell death” value in the assay on cancer cells was “enhance”.

As for `CCCCCCCCCCCCCCCCCCOC[C@H](COP(=O)(O)O[C@H]1[C@H](O)[C@@H](O)[C@H](O)C[C@H]1OC)OC` [AKT inhibitor II], the “Taxol induced cell death in vivo” value with L3.6 pancreatic cells (inhibitor plus taxol, pancreatic cancer model SCID mice, expected) is listed as “enhance”. Moreover, the “effect on Taxol induced cancer cell death” value in the assay on cancer cells is on record as “enhance”.

On to `c1cc(-c2cnn3cc(-c4ccc(OCCN5CCCCC5)cc4)cnc23)ccn1` [Compound C], for which the “effect on Taxol induced cancer cell death” value in the assay with cancer cells is reported as “inhibits”.

In the case of `N#CC(=C(N)Sc1ccccc1N)C(C#N)=C(N)Sc1ccccc1N` [U0126, 1,4-diamino-2,3-dicyano-1,4-bis [2-aminophenylthio]butadiene], in assay [1], the “effect on gemcitabine induced L3.6 cell death” value is given as “largely enhanced; also recorded: sensitized” and the “effect on taxol induced L3.6 cell death” value was “largely enhanced; also recorded: sensitized”.

With `Nc1ccn([C@@H]2O[C@H](CO)[C@@H](O)C2(F)F)c(=O)n1` [gemcitabine], the cancer cell death entry (with Panc-1 cells; in the assay on MIA-PaCa2 cells; in assay [2]) was “moderate effect” each time. Further, the anti-tumor effect result in the assay with L3.6 pancreatic cells (gemcitabine 10 mg/kg) is given as “moderate anti-tumor effect”. The “survival and tumor growth” value in the assay on L3.6 pancreatic cells (low dose gemcitabine 5 mg/kg) was “limited effect”. Also, in the assay with AKT/mTORC1 (L3.6 cells, Western Blot), the “AKT/mTORC1 activation / signaling” value was “no effect”. Further, the PI3K/AKT/mTOR activation entry in the assay on AKT/mTORC1 (Taxol alone) was “no effect”. The “effect on C6-ceramide induced AKT de-phosphorylation or inhibition” value in the assay with AKT/mTORC1 (added to C6-ceramide) is “dramatically enhanced”. Moreover, in the assay with ERK (L3.6 cells, Western Blot), the “ERK activation / signaling” value is “no effect”. Besides, the “effect on C6-ceramide inhibition of ERK activation” value with ERK (added to C6-ceramide) is recorded as “enhanced”.
